The results in this text go back to article PMC10931776, “Modes of Interactions with DNA/HSA Biomolecules and Comparative Cytotoxic Studies of Newly Synthesized Mononuclear Zinc(II) and Heteronuclear Platinum(II)/Zinc(II) Complexes toward Colorectal Cancer Cells” (International Journal of Molecular Sciences, 2024).

Assay [1] concerns mouse colorectal carcinoma (CT26). The experiment in a line: MTT cytotoxicity assay, CT26. The format is cell-based. The note with it: 48 h. As to the method:
(§1) The in vitro cytotoxicity of newly synthesized mono- and heteronuclear platinum(II)/and zinc(II) complexes, featuring a 4,4′,4″-tri-tert-butyl-2,2′:6′,2″-terpyridine ligand (designated as C1–C5), was assessed using MTT assay procedures. This evaluation targeted various cell lines: mouse colorectal carcinoma (CT26), human colorectal carcinoma (HCT116 and SW480), and non-cancerous mouse mesenchymal stem cells (mMSC). These cell lines were exposed to synthesized complexes for 48 h, with concentrations ranging from 1.17 to 150 μM.
(§2) In our study, various cell lines were cultured, including mouse colorectal carcinoma (CT26), human colorectal carcinoma (HCT116 and SW480) obtained from ATCC, USA, and mouse mesenchymal stem cells (mMSC, Gibco), New York, NY, USA). These cell lines were consistently maintained in complete Dulbecco’s Modified Eagle Medium (DMEM) supplemented with 10% fetal bovine serum (FBS) (Sigma Aldrich, St. Louis, MO, USA), 100 IU/mL penicillin, and 100 μg/mL streptomycin antibiotics (Invitrogen, Carlsbad, CA, USA). The cultures were incubated at 37 °C in a humidified atmosphere of 5% carbon dioxide (CO2). […] The viability and count of the cells were determined using Trypan blue staining, ensuring the accuracy and reliability of the experimental outcomes.
(§3) The cytotoxic effects of five newly synthesized complexes, alongside cisplatin, were assessed through the MTT assay method, in line with previously established protocols. During the exponential growth phase, cells were collected from culture flasks, counted, and then seeded in 96-well culture plates at a density of 5·10^3 cells per well. Subsequent treatment involved exposing these cells to varying concentrations of the newly synthesized complexes and cisplatin (ranging from 1.17 to 150 μM) for a duration of 48 h, with fresh complete medium serving as the control. The results were quantified relative to the control (untreated cells), providing a comparative measure of cytotoxicity. Additionally, IC50 values, representing the concentration required to inhibit 50% of the cell viability, were calculated using Microsoft Office Excel 2010. Lastly, the data were presented as percentages of viable cells in accordance with the methodology outlined in the referenced study, facilitating a comprehensive understanding of the anticancer potential of these compounds.
A general note: Tetrazolium dyes change colour on reduction, which living cells bring about.

Another assay relates to CT26 cells. The experiment in a line: Cell cycle analysis by flow cytometry. It counts as cell-based, mouse. To be noted: CT26, 24 h treatment, vs untreated. The procedure: The study of cell cycle arrest in CT26 carcinoma cells treated with the potent compound C1 was conducted to elucidate the potential cellular mechanisms underlying its anticancer effect. For this purpose, CT26 cells were subjected to 24 h treatment with the C1 complex. […] This arrest is likely attributable to molecular alterations within the cancer cells post-treatment. […] This reduction in the S phase, where DNA replication occurs, further indicates the efficacy of the C1 complex in hindering cell cycle progression. […] The induction of cell cycle arrest by the C1 compound potentially curtails the growth and dissemination of carcinoma cells, underscoring its efficacy as a promising anticancer agent.
Our research progressed to explore the potential effects of the newly synthesized C1 complex on the cell cycle dynamics of CT26 tumor cells. […] Each sample tube was then treated with a specific antibody targeting Ki67 (eBioscience, San Diego, CA, USA)/1 μL of Vybrant® DyeCycleTM Ruby stain (Thermo Fisher Scientific Inc., Waltham, MA, USAand subsequently analyzed using a FACS Calibur flow cytometer (BD Biosciences, San Jose, CA, USA). A minimum of 15,000 events per sample were examined. Data analysis was conducted using the FlowJo vX.0.7 software, allowing for a detailed assessment of the cell cycle phases and any impact induced by the C1 complex.
Background: In flow cytometry, cells or beads pass a laser one at a time.

Assay [2] addresses T1, Human serum albumin (HSA) (Homo sapiens, UniProt P02768).
T1 construct: reagents in general came from Sigma-Aldrich, Acros Organics or Merck
Briefly: HSA fluorescence quenching. The format is binding. The note with it: HSA 2 µM, complex 0–30 µM, PBS pH 7.4, room temperature, λex 295 nm. The source says:
Human serum albumin (HSA) produces a fluorescence signal when excited at 295 nm due to the tryptophan residues. This characteristic makes fluorescence spectroscopy an effective tool for studying complex interactions involving HSA. If the examined complex interacts with HSA, an increasing concentration of the complex will lead to a decrease in fluorescence, as shown in Figure 4 and Figures S14–S17. […] The Stern–Volmer equation (Equation (S2)) was used to determine the Stern–Volmer constant, Ksv, for the HSA interactions.
The binding affinity of the complexes C1–C5 to HSA has been determined through fluorescence quenching experiments. The measurements were conducted in a 0.01 M PBS with a pH of 7.4 at room temperature. The HSA concentration was kept constant at 2 μM while the concentration of complexes C1–C5 was increased from 0 to 30 μM, resulting in a significant decrease in emissions at 352 nm. Before each measurement, the system was shaken at room temperature. The fluorescence intensity was measured with the wavelength of excitation at 295 nm and recorded in the 300 to 500 nm range. The width of the excitation and emission slits (10 nm) and scan rate were maintained at a constant rate. The Stern–Volmer constants, Ksv, were determined by Equation (2).

Assay [3] has as its system human colorectal carcinoma (SW480). Briefly: MTT cytotoxicity assay, SW480. It counts as cell-based. The note with it: 48 h. As to the method: as §1, §2, §3

T1 sequence (P02768 25-609): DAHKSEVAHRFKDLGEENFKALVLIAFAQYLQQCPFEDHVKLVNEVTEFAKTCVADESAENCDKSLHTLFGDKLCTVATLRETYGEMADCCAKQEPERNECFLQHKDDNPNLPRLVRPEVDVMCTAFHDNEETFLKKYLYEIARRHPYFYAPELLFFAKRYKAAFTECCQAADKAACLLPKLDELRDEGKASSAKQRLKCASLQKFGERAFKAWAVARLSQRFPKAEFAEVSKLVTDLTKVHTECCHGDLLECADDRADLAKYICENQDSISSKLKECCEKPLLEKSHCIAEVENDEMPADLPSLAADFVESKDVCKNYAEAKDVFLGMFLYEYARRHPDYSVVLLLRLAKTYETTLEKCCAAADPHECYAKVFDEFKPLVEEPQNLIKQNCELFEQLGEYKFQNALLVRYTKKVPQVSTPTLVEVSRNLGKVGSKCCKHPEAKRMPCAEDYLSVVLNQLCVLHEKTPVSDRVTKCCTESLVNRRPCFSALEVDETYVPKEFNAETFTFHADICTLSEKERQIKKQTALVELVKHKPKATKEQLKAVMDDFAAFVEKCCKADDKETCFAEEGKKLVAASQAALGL

For orientation: IC50 means the concentration that inhibits the measured activity by half. On to [ZnCl2(terpy^t^Bu)] [C1], for which the “Selectivity Index (IC50 mMSC/IC50), CT26” value in assay [1] is 1.3. Further, the IC50 in assay [1] (read-out: IC50 ± SEM, CT26) was determined as 44.7 ± 58.7 µM. Besides, in the assay with CT26 cells, the “Cell cycle distribution, G0/G1 phase” value is reported as “G0/G1 phase arrest” and the “Cell cycle distribution, synthesis (S) phase” value was “notable decrease”. Also, in assay [2], the “Stern–Volmer constant Ksv, HSA” value is on record as 1.8 ± 0.1 10^4 M^–1. Further, in assay [3], the “Selectivity Index (IC50 mMSC/IC50), SW480” value was determined as 0.5. In addition, the 50% inhibitory concentration (IC50) in assay [3] (read-out: IC50 ± SEM, SW480) was found to be 106 ± 126 µM.
